Measured values taken from PubChem BioAssay (NCI).
Where “and” joins values, the source holds several entries; their conditions need not be identical. Equal entries are not always repeated.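 Test compounds were applied to cells in 96-well plates for 48 hours at 5 doses. The concentration for 50% growth inhibition is given as GI50. TGI marks complete inhibition of growth.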

How the values were obtained:
Test in all cases: DTP human tumour cell line panel, 48 h
[1] = system: CCRF-CEM leukemia
[2] = system: COLO 205 colon
[3] = system: HCT-15 colon
[4] = system: KM12 colon
[5] = system: M14 melanoma
[6] = system: MDA-MB-435
[7] = system: SK-MEL-2 melanoma
[8] = system: TK-10 renal
[9] = system: U251 CNS
[10] = system: UACC-62 melanoma

SMILES	TGI [1] [µM]	TGI [2] [µM]	TGI [3] [µM]	TGI [4] [µM]	TGI [5] [µM]	TGI [6] [µM]	TGI [7]	TGI [8] [µM]	TGI [9] [µM]	TGI [10] [µM]	GI50 [1] [µM]	GI50 [2] [µM]	GI50 [3] [µM]	GI50 [4] [µM]	GI50 [5] [µM]	GI50 [6] [µM]	GI50 [7]	GI50 [8] [µM]	GI50 [9] [µM]	GI50 [10] [µM]
c1cncc(C(Nc2cccc3cccnc23)Nc2cccc3cccnc23)c1	> 100	> 100	> 100	> 100	> 100	> 100	> 100 µM	> 100	> 100	> 100										
Cc1nn2c(/C=C3/C(=O)Nc4ccc(Cl)cc43)c(-c3ccccc3)nc2s1	23.7	13.5	31.9	5.88	21.5	13.5	18.4 µM	8.79	3.71	18.5	4.06	3.9	4.65	2.11	6.33	3.24	4.04 µM	3.3	1.73	3.8
COc1ccc(/C=C(\C#N)c2cc(OC)c3c(c2)OCO3)cc1	> 100	0.0521	> 73.6	1.66			2.81 µM	41.1	69.9	> 100	0.0226	< 0.0124	0.0118	< 0.01		< 0.01	< 0.017 µM	0.56	< 0.0179	< 0.01
O=C(CNC(=O)c1cccc2ccccc12)Nc1ccccc1Oc1ccccc1	> 10	1.14	> 10	> 10	> 10	0.313	> 10 µM	> 10	> 10	> 10	0.345	0.308	0.245	0.289	0.278	0.0425	0.272 µM	0.619	0.328	0.177
NC(=NC1CCCCCC1)c1ccc(N2CCN(c3ccc(C(N)=NC4CCCCCC4)cc3)CC2)cc1	46.5	> 50	> 50	30.2	30.5	26.1	18.1 µM	> 50	11.3	17.2	10.5	14.7	24.3	8.35	8.74	7.85	7.65 µM	14.6	3.02	7.8
CCS(=O)(=O)c1ccc(OC)c(Nc2nccc(N(C)c3ccc4c(C)[nH]nc4c3)n2)c1	> 25	> 25	18.3	> 25	> 21.8	13.5	14.9 µM	14.5	> 25	24.5	8.15	11	5.3	5.7	8.46	5.34	5.45 µM	5.15	7.28	6.79
COc1cc(-c2cn(-c3ccc(Cl)cc3)c(=O)[nH]2)cc(OC)c1OC	> 100	> 100	> 100	> 100	> 100	> 100	> 100 µM	> 100	> 100	> 100	> 100	> 100	> 100	> 100	> 100	> 100	> 100 µM	> 100	> 100	> 100
CCC(C)/C=C(C)/C=C/C(=O)c1c(O)c(-c2ccc(O)cc2)c[nH]c1=O (stereo not drawn)	19.7	19.5	12.6	12.4	19.7	11.2	11 µM	15.3	13	15.9	2.58	7.2	2.4	3.41	6.58	2.94	3.53 µM	4.32	3.01	3.73
CCc1ccc(CCC(=O)Nc2ncc(Cc3ccccc3)s2)o1	> 100	> 100	> 100	> 100	> 100	10.1	> 100 µM	> 100	> 100	> 100	2.02	2.28	0.544	1.3	0.876	0.301	5.42 µM	23	3.06	1.21
Cc1ccc(NS(=O)(=O)c2cc(C)ccc2C)cc1	> 100	14.7	33.9	16.5	11	2.57	9.64 µM	37.7	23.8	19.9	6.19	3.49	2.46	1.73	2.43	0.351	3.2 µM	10.2	4.25	3.08
Cc1cc(-c2nc3ccc(O)cc3s2)ccc1N	> 100	> 100	> 100	> 100	> 100	> 100	> 100 µM	> 100	> 100	> 100	0.797	> 100	> 100	57.9	33.1	88.3	> 100 µM	76.8	31.3	57.7
Fc1ccc(-c2nnc3sc(-c4cccc(Cl)c4)nn23)cc1Cl	> 100	> 100	> 100	> 100	> 100	> 100	> 100 µM	> 100	> 100	> 100	> 100	> 100	> 100	> 100	> 100	> 100	> 100 µM	> 100	> 100	> 100
Cc1cc(N/N=C/c2nc(-c3ccccc3)oc2C)c2cc(Cl)ccc2n1		3.66	3.37		3.54	3.26	38.7 µM	3.29	3.34	3.36		1.8	1.68		1.83	1.78	18.7 µM	1.79	1.78	1.7
Cc1nn2c(/C=C3/C(=O)Nc4ccccc43)c(-c3ccc(Cl)cc3)nc2s1	> 50	> 50	> 50	> 50	36.4	> 50	> 50 µM	32.1	18.7	21.4	12.3	14.9	15.3	16.5	11.5	39.5	> 50 µM	12.3	9.73	10.2
Cc1cc(S(=O)(=O)NC#N)c(S/C(=N\Nc2ccc([N+](=O)[O-])cc2)c2ccccc2)cc1Cl	51.5	> 100		30.2	37.3	> 100	34 µM	38.3	28.1	51.8	20.2	44.7		16.6	18.1	32.7	13.8 µM	16	14.9	21.5
COc1cc(-c2cc(-c3nc4ccccc4[nH]3)[nH]n2)cc(OC)c1OC	9.96	15.6	24.4	11.6	11.6	7.61		22.8	32.6	4.66	2.12	3.98	3.43	3.15	2.57	2.35		4.07	3.73	1.64
Nc1ncc(-c2ccc(C(F)(F)F)cc2)c(NC2CCCCCC2)n1	52.8	36.7	> 100	> 100	> 100	> 100		> 100	88.9	> 100	15.4	19.5	38.8	37.2	32.9	35		54.5	20.8	20.4
O=c1[nH]nc2c3c(cccc13)NC(CN1Cc3ccccc3C1)=N2	> 100	89.7	> 100	> 100	> 100	> 100	> 100 µM	> 100	> 100	> 100	4.42	4.09	6.13	4.41	4.08	4.39	> 100 µM	8.89	8.05	4.44
COC[C@H]1OC(=O)c2coc3c2[C@@]1(C)C1=C(C3=O)[C@@H]2CCC(=O)[C@@]2(C)C[C@H]1OC(C)=O	> 53.5	> 31.6	> 100	> 100	> 59	> 54.3	16.6 µM	> 100	> 100	17.5									36.8	
CCOC(=O)C(Cc1c[nH]c2cc([N+](=O)[O-])ccc12)(NC(C)=O)C(=O)OCC		> 1000	> 1000	> 1000		> 1000	97.9 µM and 401 µM	> 760	> 693	> 1000		> 1000	> 1000	> 1000	> 931	> 649	36 µM and 168 µM	296	104	
O=C(O)c1ccc(NS(=O)(=O)c2cccc3cccnc23)cc1	> 100	> 100	> 100	> 100	> 100	> 100	> 100 µM		> 100	> 100	> 100	> 100	> 100	> 100	> 100	> 100	> 100 µM		> 100	> 100
CN(C)CCCn1c2c3ccccc3ccc2c2oc(=O)c3ccccc3c21	> 21.3	5.87	4.34	10.3		> 20	21.1 µM	23	9.26	20.3										
Cc1ccc2c(=O)[nH]sc2c1	13.9	16.7	39.4		23.9	27.6	> 100 µM	33.9	27.9	41.2										
O=C(Nc1ccc2oc(=O)c(C(=O)O)cc2c1)Oc1ccccc1		> 100	> 100	> 100	> 100	> 100	> 100 µM	> 100	> 100	> 100										
N#CC(C#N)=CN1CCN(C(=O)c2ccccc2)C1=S	> 100		> 100	86.7	> 100	> 100	68.4 µM	75.1	> 100	> 100	> 100		36.4	32.3	37.3	38.8	18.4 µM	23.3	38.2	50.4
Cl.Fc1c[c-]c(-c2ccccn2)c(F)c1.[Pt].c1ccc([PH+](CC[PH+](c2ccccc2)c2ccccc2)c2ccccc2)cc1				0.277	1.22	0.51	0.756 µM	1.13	1.13	0.364				0.0772	0.0741	0.127	0.233 µM	0.157	0.0319	0.128
Cc1nc(NC(=S)Nc2ccc(F)cc2)sc1C(=O)NNC(=S)Nc1ccc(F)cc1	15.7	20		13.4	> 100	55.2	60.3 µM	48.1		18.9	2.56	7.11		3.11	20.2	7.34	19.4 µM	6.93		3.01
Cc1nc(Nc2ccc(F)c(Cl)c2)sc1C(=O)O	> 100	3.2			3.66	5.25	3.8 µM	4.09	3.04	2.62	3.01	1.64			1.73	2.13	1.97 µM	1.96	1.44	1.17
